Results from patent US20120035165A1, “Use of fungicidal compound compositions for controlling certain rust fungi” (Bayer CropScience AG, priority 2008, published 2012).

Tested on: Phakopsora pachyrhizi
Assay: Phakopsora test (soybeans)/protective
Format: in vivo, Phakopsora pachyrhizi on soybeans
Settings: protective spray on young soybean plants, inoculated 1 day after spraying, evaluated 10 days after inoculation
Description: Phakopsora Test (Soybeans)/Protective Solvent: 28.5 parts by weight of acetone Emulsifier: 1.5 parts by weight of polyoxyethylene alkyl phenyl ether To produce a suitable preparation of active compound, 1 part by weight of active compound or active compound combination is mixed with the stated amounts of solvent and emulsifier, and the concentrate is diluted with water to the desired concentration. To test for protective activity, young plants are sprayed with the preparation of active compound or active compound combination at the stated rate of application. After the spray coating has dried on, the plants are placed in a greenhouse at a temperature of approximately 23° C. and a relative atmospheric humidity of approximately 70%. 1 day after spraying, the plants are inoculated with an aqueous spore suspension of the causal agent of soybean rust (Phakopsora pachyrhizi). The plants are then placed in a greenhouse at approximately 20° C. and a relative atmospheric humidity of approximately 80%. The test is evaluated 10 days after the inoculation. 0% means an efficacy which corresponds to that of the control, while an efficacy of 100% means that no disease is observed.

| SMILES | Efficacy in % (rate of application 10 ppm) [%] | Efficacy in % (rate of application 0.5 ppm) [%] |
| --- | --- | --- |
| Cn1cc(C(=O)Nc2ccc(F)cc2-c2ccc(Cl)c(Cl)c2)c(C(F)F)n1 [(I-2) Bixafen, N-(3′,4′-dichloro-5-fluoro-1,1′-biphenyl-2-yl)-3-(difluoromethyl)-1-methyl-1H-pyrazole-4-carboxamide] | 50 |  |
| OC(Cc1ccccc1Cl)(Cn1nc[nH]c1=S)C1(Cl)CC1 (centres unmarked) [(III-1) Prothioconazole, Prothioconazole] |  | 50 |
